Three compounds from patent US10378058B2, “Diagnostic and therapeutic methods and compositions involving PTEN and breast cancer” (Board of Regents of The University of Texas System, priority 2003, dated 2019) can be followed below.

Series [1] has as its target T1, Src (Homo sapiens, UniProt P12931).
T1 construct: endogenous in cells; host or cells: 435.eB cells
Put plainly: Src-Y416 phosphorylation in 435.eB cells. Format: cell-based. The note with it: vs solvent 10% DMSO. As for the experimental part:
(§1) Preparation of Cell Lysates, Immunoprecipitation, and Western Blot Analysis. Cells at 70%-80% confluence were treated with each reagent indicated in the individual experiments. For PTEN phosphotyrosine immunoblots, ErbB2 IP, and Src IP, cells were treated with 30 mM pervanadate for 10 min as described (Lu et al., 2003). Unless noted, cells were washed with PBS and lysed in IP buffer with protease inhibitor cocktail (Sigma Chemical Co., St. Louis, Mo.). Immunoprecipitation and Western blot analysis were performed (Yu et al., 1998).

For series [2], the system named is PTEN. Put plainly: PTEN tyrosine phosphorylation in 435.eB cells. Format: cell-based. The note with it: vs solvent 10% DMSO. As for the experimental part:
as §1

The subject of series [3] is BT474 cells. The experiment in a line: Cell viability assay of BT474 cells. Format: cell-based, human. The note with it: paclitaxel alone without trastuzumab. On the procedure: (§2) Cell viability assay. Cells were seeded at 1-5×10^3 cells/well in 96-well plates after oligonucleotide transfection. Viable cells were determined by CellTiter 96 AQueous Non-Radioactive Cell Proliferation Assay (Promega, Madison, Wis.).

Series [4] relates to SKBr3 cells. The experiment in a line: Cell proliferation of SKBr3 cells (MTS assay). Format: cell-based, human. The note with it: PTEN AS alone without trastuzumab, vs MIS. On the procedure:
as §2

Series [5] has as its system PTEN. The experiment in a line: PTEN expression in BT474 xenografts injected with oligonucleotides. Format: in vivo, mice. The following applies: intratumor injection 15 μg/injection twice a week for 1 week, ErbB2 expression remained the same. As for the experimental part:
Animal experiment. Female athymic nude mice (Harlan Sprague Dawley, Indianapolis, Ind.) were implanted with 0.72-mg 60-day-release 17β-estradiol pellets (Innovative Research, Sarasota, Fla.) and irradiated at 3.5 Gy prior to inoculation. BT474 cells (8×10^6) in 200 μl of PBS and Matrigel (BD Biosciences, Bedford, Mass.) mixture (1:1 ratio) were injected subcutaneously into a mouse mammary fat pad (mfp). When the mfp tumor volume reached >150 mm^3, the tumor was treated with PTEN antisense or control mismatched oligonucleotides (30 μg/week) in saline. […] Tumor diameters were serially measured with calipers and tumor volumes calculated: volume=width^2×length/2. Each treatment group contained 8-12 mice. Unpaired Student's t-test was used to assess statistical significance.

The subject of series [6] is PTEN. The experiment in a line: PTEN expression after antisense transfection in vitro. Format: cell-based, human. The note with it: SKBr3 cells, 25 nM, vs mock or mismatched (MIS) oligonucleotides. As for the experimental part:
Antisense Delivery in vitro. Antisense oligonucleotides against PTEN (ISIS116847: 5′-[…]-3′) (SEQ ID NO:3) and control oligonucleotides (ISIS 116848: 5′-[…]-3′ (SEQ ID NO:4), with six base mismatches to ISIS 116847) have been described (Butler et al., 2002). Cells were plated in 100-mm dishes at 30% confluence and transfected with oligonucleotides (12.5 nM for BT474 and 25 nM for SKBr3 cells) twice using Oligofectamine (Life Technologies, Rockville, Md.) 24 and 72 h post-plating. Ninety-six hours post-plating, cells were re-plated for individual assays described in this report. PTEN expression was determined 120 h post-plating (FIG. 2A).
as §1

“Also recorded” adds a separate entry of the source.

T1 sequence (P12931 whole entry): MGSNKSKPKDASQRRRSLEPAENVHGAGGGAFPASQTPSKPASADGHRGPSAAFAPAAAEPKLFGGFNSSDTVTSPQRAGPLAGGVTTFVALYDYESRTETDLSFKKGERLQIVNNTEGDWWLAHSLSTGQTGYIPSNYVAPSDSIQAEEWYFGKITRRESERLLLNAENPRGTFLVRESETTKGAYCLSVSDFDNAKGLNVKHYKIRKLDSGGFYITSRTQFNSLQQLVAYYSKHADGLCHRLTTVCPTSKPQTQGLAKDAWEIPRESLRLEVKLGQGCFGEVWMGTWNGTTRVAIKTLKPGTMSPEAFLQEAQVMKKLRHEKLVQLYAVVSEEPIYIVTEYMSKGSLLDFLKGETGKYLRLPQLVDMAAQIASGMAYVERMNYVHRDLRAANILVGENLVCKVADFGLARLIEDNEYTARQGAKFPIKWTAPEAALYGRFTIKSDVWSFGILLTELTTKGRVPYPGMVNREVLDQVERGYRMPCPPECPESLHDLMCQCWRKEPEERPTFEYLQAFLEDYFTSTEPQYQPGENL

As to `CC(C)(C)n1nc(-c2ccc(Cl)cc2)c2c(N)ncnc21` [PP2], the “Src phosphorylation on Y416” value in series [1] is “effectively inhibited Src phosphorylation on Y416”. Also, in series [2], the “tyrosine phosphorylation of PTEN” value is “dramatically reduced tyrosine phosphorylation of PTEN”.
Consider `CC(=O)O[C@H]1C(=O)[C@@]2(C)[C@H]([C@H](OC(=O)c3ccccc3)[C@]3(O)C[C@H](OC(=O)[C@H](O)[C@@H](NC(=O)c4ccccc4)c4ccccc4)C(C)=C1C3(C)C)[C@]1(OC(C)=O)CO[C@@H]1C[C@@H]2O` [paclitaxel], for which the “cell viability, PTEN AS-transfected vs MIS control-transfected cells” value in series [3] was “no statistically significant difference in cell viability”.
In the case of “PTEN AS: Antisense oligonucleotides against PTEN, 5′-CTGCTAGCCTCTGGATTTGA-3′ (SEQ ID NO:3) (listed as DNA, chemistry not given here)”, the cell proliferation result in series [4] is recorded as “no significant effect on cell proliferation”. The “PTEN expression in tumor xenografts” value in series [5] was “effectively inhibited; also recorded: reduced”. Also, the “endogenous PTEN expression” value in series [6] is reported as “inhibited endogenous PTEN expression; also recorded: reduced”.
